# In patent US12303497B2, “Anti-androgens for the treatment of metastatic castration-sensitive prostate cancer” (priority 2019, dated 2025):
# Test system: patients with metastatic castration-sensitive prostate cancer (mCSPC)
structure (smiles),measurement,setting,value
"CNC(=O)c1ccc(N2C(=S)N(c3cnc(C#N)c(C(F)(F)F)c3)C(=O)C23CCC3)cc1F [Apalutamide, 4-[7-(6-cyano-5-trifluoromethylpyridin-3-yl)-8-oxo-6-thioxo-5,7-diazaspiro[3.4]oct-5-yl]-2-fluoro-N-methylbenzamide]",Grade ≥3 rash led to discontinuation,7 patients,1.3%
same,Skin rash led to treatment discontinuation,12 patients,2.3%
same,Skin rash led to dose reduction,28 patients,5.3%
same,Adverse events led to discontinuation,42 patients,8.0%
same,Skin rash led to dose interruption,44 patients,8.4%
same,AE leading to discontinuation: Alanine aminotransferase increased,All Grades,0 no. (%)
same,AE leading to discontinuation: Anxiety,All Grades,1 (0.2) no. (%)
same,AE leading to discontinuation: Atrial fibrillation,All Grades,1 (0.2) no. (%)
same,AE leading to discontinuation: Cardiac failure,All Grades,0 no. (%)
same,AE leading to discontinuation: Cardio-respiratory arrest,All Grades,1 (0.2) no. (%)
same,AE leading to discontinuation: Cardiogenic shock,All Grades,1 (0.2) no. (%)
same,AE leading to discontinuation: Cerebrovascular disorder,All Grades,1 (0.2) no. (%)
same,AE leading to discontinuation: Cognitive disorder,All Grades,0 no. (%)
same,AE leading to discontinuation: Dehydration,All Grades,1 (0.2) no. (%)
same,AE leading to discontinuation: Dyspnea,All Grades,0 no. (%)
same,AE leading to discontinuation: Euphoric mood,All Grades,1 (0.2) no. (%)
same,AE leading to discontinuation: Fatigue,All Grades,4 (0.8) no. (%)
same,AE leading to discontinuation: Hot flush,All Grades,1 (0.2) no. (%)
same,AE leading to discontinuation: Hypothermia,All Grades,0 no. (%)
same,AE leading to discontinuation: Infections,All Grades,1 (0.2) no. (%)
same,AE leading to discontinuation: Intracranial hemorrhage,All Grades,0 no. (%)
same,AE leading to discontinuation: Ischemic cardiac events,All Grades,2 (0.4) no. (%)
same,AE leading to discontinuation: Large intestinal ulcer perforation,All Grades,1 (0.2) no. (%)
same,AE leading to discontinuation: Lip swelling,All Grades,1 (0.2) no. (%)
same,AE leading to discontinuation: Loss of consciousness,All Grades,0 no. (%)
same,AE leading to discontinuation: New cancer neoplasm,All Grades,7 (1.3) no. (%)
same,AE leading to discontinuation: Parkinson's disease,All Grades,1 (0.2) no. (%)
same,AE leading to discontinuation: Pleural effusion,All Grades,0 no. (%)
same,AE leading to discontinuation: Pulmonary edema,All Grades,0 no. (%)
same,AE leading to discontinuation: Pulmonary embolism,All Grades,1 (0.2) no. (%)
same,AE leading to discontinuation: Radiculopathy,All Grades,1 (0.2) no. (%)
same,AE leading to discontinuation: Rash (grouped term),All Grades,12 (2.3) no. (%)
same,AE leading to discontinuation: Respiratory failure,All Grades,0 no. (%)
same,AE leading to discontinuation: Seizure,All Grades,2 (0.4) no. (%)
same,AE leading to discontinuation: Subdural hemorrhage,All Grades,0 no. (%)
same,AE leading to discontinuation: Sudden cardiac death,All Grades,1 (0.2) no. (%)
same,AE leading to discontinuation: Sudden death,All Grades,0 no. (%)
same,AE leading to discontinuation: Suicide,All Grades,0 no. (%)
same,AE leading to dose interruption: Acute kidney injury,All Grades,1 (0.2) no. (%)
same,AE leading to dose interruption: Acute respiratory failure,All Grades,1 (0.2) no. (%)
same,AE leading to dose interruption: Allergy to chemicals,All Grades,1 (0.2) no. (%)
same,AE leading to dose interruption: Anemia,All Grades,2 (0.4) no. (%)
same,AE leading to dose interruption: Angina unstable,All Grades,0 no. (%)
same,AE leading to dose interruption: Anxiety,All Grades,2 (0.4) no. (%)
same,AE leading to dose interruption: Arthralgia,All Grades,2 (0.4) no. (%)
same,AE leading to dose interruption: Aspartate aminotransferase or alanine aminotransferase increased,All Grades,7 (1.3) no. (%)
same,AE leading to dose interruption: Asthenia,All Grades,3 (0.6) no. (%)
same,AE leading to dose interruption: Atrial fibrillation,All Grades,1 (0.2) no. (%)
same,AE leading to dose interruption: Bile duct obstruction,All Grades,0 no. (%)
same,AE leading to dose interruption: Blood alkaline phosphatase increased,All Grades,1 (0.2) no. (%)
same,AE leading to dose interruption: Cardiac amyloidosis,All Grades,0 no. (%)
same,AE leading to dose interruption: Cardiac disorder,All Grades,0 no. (%)
same,AE leading to dose interruption: Cardiac failure,All Grades,0 no. (%)
same,AE leading to dose interruption: Cardiac failure congestive,All Grades,1 (0.2) no. (%)
same,AE leading to dose interruption: Cerebrovascular accident,All Grades,1 (0.2) no. (%)
same,AE leading to dose interruption: Cheilitis,All Grades,1 (0.2) no. (%)
same,AE leading to dose interruption: Chronic hepatitis,All Grades,1 (0.2) no. (%)
same,AE leading to dose interruption: Chronic obstructive pulmonary disease,All Grades,2 (0.4) no. (%)
same,AE leading to dose interruption: Cognitive disorder,All Grades,1 (0.2) no. (%)
same,AE leading to dose interruption: Confusional state,All Grades,1 (0.2) no. (%)
same,AE leading to dose interruption: Constipation,All Grades,1 (0.2) no. (%)
same,AE leading to dose interruption: Decreased appetite,All Grades,2 (0.4) no. (%)
same,AE leading to dose interruption: Dehydration,All Grades,0 no. (%)
same,AE leading to dose interruption: Depression,All Grades,1 (0.2) no. (%)
same,AE leading to dose interruption: Diabetes mellitus,All Grades,1 (0.2) no. (%)
same,AE leading to dose interruption: Diarrhea,All Grades,1 (0.2) no. (%)
same,AE leading to dose interruption: Diplegia,All Grades,0 no. (%)
same,AE leading to dose interruption: Dizziness,All Grades,1 (0.2) no. (%)
same,AE leading to dose interruption: Dyspnea,All Grades,1 (0.2) no. (%)
same,AE leading to dose interruption: Dysuria,All Grades,1 (0.2) no. (%)
same,AE leading to dose interruption: Edema,All Grades,1 (0.2) no. (%)
same,AE leading to dose interruption: Eyelid edema,All Grades,1 (0.2) no. (%)
same,AE leading to dose interruption: Facial edema,All Grades,1 (0.2) no. (%)
same,AE leading to dose interruption: Fall,All Grades,1 (0.2) no. (%)
same,AE leading to dose interruption: Fatigue,All Grades,6 (1.1) no. (%)
same,AE leading to dose interruption: Febrile neutropenia,All Grades,1 (0.2) no. (%)
same,AE leading to dose interruption: Gamma-glutamyltransferase increased,All Grades,1 (0.2) no. (%)
same,AE leading to dose interruption: Gastric ulcer perforation,All Grades,1 (0.2) no. (%)
same,AE leading to dose interruption: Gastritis,All Grades,0 no. (%)
same,AE leading to dose interruption: General physical health deterioration,All Grades,1 (0.2) no. (%)
same,AE leading to dose interruption: Hallucination,All Grades,1 (0.2) no. (%)
same,AE leading to dose interruption: Headache,All Grades,1 (0.2) no. (%)
same,AE leading to dose interruption: Hematoma,All Grades,1 (0.2) no. (%)
same,AE leading to dose interruption: Hematuria,All Grades,2 (0.4) no. (%)
same,AE leading to dose interruption: Hemorrhage intracranial,All Grades,1 (0.2) no. (%)
same,AE leading to dose interruption: Hemorrhagic erosive gastritis,All Grades,1 (0.2) no. (%)
same,AE leading to dose interruption: Hepatic cirrhosis,All Grades,1 (0.2) no. (%)
same,AE leading to dose interruption: Hepatic failure,All Grades,0 no. (%)
same,AE leading to dose interruption: Hip fracture,All Grades,1 (0.2) no. (%)
same,AE leading to dose interruption: Hot flush,All Grades,1 (0.2) no. (%)
same,AE leading to dose interruption: Hydronephrosis,All Grades,0 no. (%)
same,AE leading to dose interruption: Hyperbilirubinemia,All Grades,1 (0.2) no. (%)
same,AE leading to dose interruption: Hypersensitivity,All Grades,1 (0.2) no. (%)
same,AE leading to dose interruption: Hypertension,All Grades,6 (1.1) no. (%)
same,AE leading to dose interruption: Hypertriglyceridemia,All Grades,2 (0.4) no. (%)
same,AE leading to dose interruption: Hypokalemia,All Grades,1 (0.2) no. (%)
